# Entries after “also recorded” stand apart in the source; their conditions may differ.
# Experiments:
# Format in all cases: cell-based
# [1] = system: DLD1 cells (ATCC CCL-221); experiment: Cell viability assay 1 (CellTiter-Glo), DLD1 cells; conditions: Homo sapiens, DLD-1 cells, 48 h, second value of the cell, read-out: Cell Viability DLD-1 (concentration that decreases cell viability by 50%)
# How it was run: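 DLD1 cells grown in RPMI-1640 with 10% FCS, 2 mM L-glutamine, 37 °C, 5% CO2, plated overnight then exposed to compound (0.5% DMSO) for 48 h. Viability by CellTiter-Glo luminescence; value is concentration reducing viability by 50% from dose-response curves.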
# [2] = biological target: T1, HRASG12V interaction with PI3K, CRAF, RALGDS (Homo sapiens, UniProt P01112, G12V); experiment: BRET2 cell assay, HRAS G12V-effector interaction; conditions: HEK293T cells, 5, 10 and 20 μM, 20 h
# T1 construct: expressed in transfected cells; host or cells: HEK293T
# Text: (§1) The BRET ratio corresponds to the light emitted by the GFP2 acceptor constructs (515 nm±30) upon addition of Coelenterazine 400a divided by the light emitted by the RLuc8 donor constructs (410 nm±80). The normalized BRET ratio is the BRET ratio normalized to the DMSO negative and calculated as follows: (BRETcompound/BRETDMSO)×100, where BRETcompound corresponds to the BRET ratio for the compound-treated cells, BRETDMSO to the DMSO-treated cells. Each experiment was repeated at least three times. Statistical analyses were performed using a one-way ANOVA followed by Dunnett's post-tests (*P<0.05, **P<0.01, ***P<0.001, ****P<0.0001). Where error bars are presented, they correspond to mean values±SD of biological repeats (a-c).
# (§2) HEK293T cells were transfected 24 hr with plasmids expressing the NRAS Q61H […] and HRAS G12V (B, D) biosensors together with the indicated RBDs of PI3K, CRAF and RALGDS (A, B) or full-length CRAF. […]
# (§3) 650,000 HEK293T were seeded in each well of a 6 well plate. […] The final concentrations in the cells were 0, 5, 10 and 20 µM (therefore the intermediate 10× concentrations were 0, 50, 100 and 200 μM. 10 μL of 10× compounds were added in each well of the 96 well plate to 0, 5, 10 and 20 µM final concentrations (with final 0.2% DMSO each). Quadruplicates were performed for each point. Cells were left for an additional 20 hours at 37° C. before the BRET2 signal reading directly after addition of Coelenterazine 400a substrate (10 µM final) to cells (Cayman Chemicals, cat #16157). BRET2 reading was carried out on an Envision instrument (2103 Multilabel Reader, PerkinElmer) with the BRET2 Dual Emission optical module (515 nm±30 and 410 nm±80; PerkinElmer).
# (§4) The ability of Example compound 56 to inhibit RAS-effector PPI using the above cell-based RAS-effector BRET2 assay was investigated. […] We determined the effect of compound 56 (labelled Abd-7) on the interaction of KRAS^G12D and with PI3Kα and PI3Kγ, CRAF RAS-binding domain (RBD) and RALGDS RAS-associating domain (RA) compared with the low affinity Reference Compound Abd-2 FIG. 1a). […]
# [3] = system: H358 cells (ATCC CRL-5807); experiment: Cell viability assay 1 (CellTiter-Glo), H358 cells; conditions: Homo sapiens, NCI-H358, 48 h, first value of the cell, read-out: Cell Viability H358 (concentration that decreases cell viability by 50%)
# How it was run: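 H358 cells were grown in RPMI-1640 with 10% FCS and 2 mM L-glutamine, plated at 5000 cells/well and allowed to adhere overnight. Compound was added in 0.5% DMSO final for 48 h at 37° C. Viability was read by CellTiter-Glo luminescence, with the 50% viability-reducing concentration derived from dose-response curves.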
# [4] = biological target: T2, NRASQ61H interaction with PI3K, CRAF, RALGDS (Homo sapiens, UniProt P01111, Q61H); experiment: BRET2 cell assay, NRAS Q61H-effector interaction; conditions: HEK293T cells, 5, 10 and 20 μM, 20 h
# T2 construct: expressed in transfected cells; host or cells: HEK293T
# Text: as §1, §2, §3, §4
SMILES,IC50 [1] [µM],"Effect on BRET signal, HRAS G12V/effector interactions ([2]; formate salt)",IC50 [3] [µM],"Effect on BRET signal, NRAS Q61H/effector interactions ([4]; formate salt)","Effect on BRET signal, HRAS G12V/effector interactions [2]","Effect on BRET signal, NRAS Q61H/effector interactions [4]"
"COc1cc(-c2cccc3c2OCCO3)ccc1Nc1cccc(CN(C)C)c1.O=CO [compound 72, [4-(2,3-Dihydro-benzo[1,4]dioxin-5-yl)-2-methoxy-phenyl]-(3-dimethylaminomethyl-phenyl)-amine formate salt]",15.4,inhibits; also recorded: disturbs the BRET2 signal in dose response manner,15.3,inhibits; also recorded: disturbs the BRET2 signal in dose response manner,–,–
"COc1nc(-c2cccc3c2OCCO3)ccc1Nc1ccc(CN(C)C)cc1 [compound 56, [6-(2,3-Dihydro-benzo[1,4]dioxin-5-yl)-2-methoxy-pyridin-3-yl]-(4-dimethylaminomethyl-phenyl)-amine]",8,–,12,–,interferes with all mutant RAS family member PPIs,interferes with all mutant RAS family member PPIs
